# Source: patent publication US12661335B2, “Halogenated xanthene-containing topical anti-gram-positive bacterial ophthalmic composition and method” (Provectus Pharmatech, Inc., priority 2021, dated 2026)
# What was measured:
# [1] = tested on: Saccharomyces cerevisiae BY4743; assay: MIC, broth dilution method, dark condition; assay type: cell-based; details: Table 1 entry 30, 24 h
# [2] = tested on: progressive infectious keratitis; details: cited from earlier work
# [3] = tested on: Fusarium keratoplasticum-infected cornea; details: one patient, cited from earlier work
# [4] = tested on: Staphylococcus aureus BAA-2313 ™ (a MRSA strain); assay: MIC, broth dilution method, dark condition; assay type: cell-based; details: Table 1 entry 10, 24 h
# [5] = tested on: Staphylococcus aureus subsp. Aureus BAA-41 ™ (a MRSA strain); assay: MIC, broth dilution method, dark condition; assay type: cell-based; details: Table 1 entry 6, 24 h
# Gram-negative bacteria = assay: Susceptibility of Gram-negative bacteria, dark condition; assay type: cell-based
# Source text: Under the dark condition RB is known to display antibacterial activity at high concentrations.
# [6] = tested on: vancomycin-resistant S. aureus strains; details: under either lighting condition (fluorescent or LED); entries 12-16
# Method: (§1) Minimum inhibitory concentrations (MICs) were determined by broth dilution microplate alamar blue assay or by OD measurement. All compounds were stored in DMSO or saline (1 mg/100 μL concentration). This concentration was used as the stock solution for all MIC studies. Each compound from stock solution was placed in the first well of a sterile 96 well plate and a serial dilution was conducted with the culturing broth (total volume of 10 μL). The bacterial suspension at log phase (190 μL) was added to each well (total volume of 200 μL), and was incubated for 24 h at 37° C. 20 μL of resazurin (0.02%) was added to each well and incubated for 4 h, (National Committee for Clinical Laboratory Standards (NCCLS) method (pink=growth, blue=no visible growth)). The OD measurements were performed for all experiments prior to performing colorimetric assays. The absorbance of each well was also measured at 570 and 600 nm via UV-Vis.
# [7] = tested on: Staphylococcus aureus subsp. Aureus BAA-44 ™ (a MRSA strain); assay: MIC, broth dilution method, dark condition; assay type: cell-based; details: Table 1 entry 8, 24 h
# [8] = tested on: Staphylococcus aureus subsp. Aureus BAA-2094 ™ (a MRSA strain); assay: MIC, broth dilution method, dark condition; assay type: cell-based; details: Table 1 entry 9, 24 h
# [9] = tested on: Staphylococcus epidermidis 35984 ™; assay: MIC, broth dilution method, dark condition; assay type: cell-based
# C. albicans = details: three days of incubation, cited from earlier work
# [10] = tested on: Enterococcus faecium BAA-2320; assay: MIC, broth dilution method, dark condition; assay type: cell-based; details: BAA2320, Table 1 entry 19, 24 h
# [11] = tested on: biofilms of drug-resistant S. aureus 71080 (VRS8); assay: Biofilm eradication assay; assay type: cell-based, Staphylococcus aureus; details: fluorescent and dark conditions; concentration-dependent
# Source text: Linezolid is not an effective drug in eradicating biofilms of Gram-positive bacteria, but has a beneficial effect in prevention of biofilm formations [Reiter et al., J. Med. Microbiol. 62:394-399 (2013)], and was used as a control.
# We confirm that RB is an excellent agent to eradicate biofilms of Gram-positive bacteria, including drug-resistant strains. […] These studies indicate that RB has the potential antibacterial agent to kill drug-resistant bacteria in any growth phases.
# [12] = tested on: biofilms of S. aureus 6508™; assay: Biofilm eradication assay; assay type: cell-based, Staphylococcus aureus; details: for viable bacteria in biofilm: dark condition
# Method: 62:394-399 (2013)], and was used as a control.
# Linezolid was applied as a positive control at very high concentration of 600 μg/mL (>100×MIC for the planktonic cells) in biofilm assays reported by Kurosu et al., Molecules 27:322 (2022).
# [13] = concentrations below 2.0%; cited from earlier work
# [14] = tested on: Streptococcus pneumoniae 6301 ™; assay: MIC, broth dilution method, dark condition; assay type: cell-based
# Mycobacterial spp. = assay: Killing concentrations for five Mycobacterial spp.; assay type: cell-based, Mycobacterium spp.
# Method: Antibacterial activity of RB against 5 Mycobacterium spp. Was examined (entries 25-29). […] RB inhibited growth of Saccharomyces cerevisiae at higher concentrations than the bacteria under the dark condition (entry 30).
# RB kills Mycobacterial spp. At 12.5-25.0 mg/mL in illumination conditions, and at 25.0-50.0 mg/mL in dark conditions (Table 1). In both conditions, RB kills five Mycobacterial spp. At a slower rate than that of Gram-positive bacteria. RB seems to have low-permeability of mycobacterial cell walls. Due to rapid bactericidal effect of RB against Gram-positive bacteria even in the dark condition, generation of RB-resistant mutants of Gram-positive bacteria is an extremely difficult task.
# [15] = tested on: Staphylococcus aureus AIS2006032 (a vancomycin-resistant strain); assay: MIC, broth dilution method, dark condition; assay type: cell-based; details: Table 1 entry 12, 24 h
# [16] = tested on: 7 methicillin-resistant S. aureus (MRSA) with different SCCmec types; assay: Bactericidal activity under fluorescent or LED light, MRSA panel; assay type: cell-based, Staphylococcus aureus; details: under the fluorescent or LED light; Table 1 entries 5-11
# Method: as §1
# [17] = tested on: multidrug-resistant Fusarium keratoplasticum; details: RB about 0.1%, photoactivated by 15 minutes irradiation at 375 nm or 518 nm; cited from earlier work
structure (smiles),measurement,setting,value
"O=C(O)c1c(Cl)c(Cl)c(Cl)c(Cl)c1-c1c2cc(I)c(=O)c(I)c-2oc2c(I)c(O)c(I)cc12 [RB, 4,5,6,7-tetrachloro-2′,4′,5′,7′-tetraiodofluorescein]",MIC,[1],125 µg/mL
same,"Successful RB-PDAT (avoidance of therapeutic keratoplasty), share of cases","[2]; 0.1 or 0.2% RB on de-epithelized corneas 30 minutes, then 5.4 J/cm^2 green LED light 15 minutes, 18 patients unresponsive to standard therapy",72%
same,average time to clinical resolution after RB-PDAT,"[2]; 0.1 or 0.2% RB, 5.4 J/cm^2 green LED light",46.9 ± 26.4 days
same,time to resolution of pain post irradiation,"[3]; RB dripped on debrided cornea 30 minutes, 518 nm light 0.9 J/cm^2",36 h
same,decrease of infiltrate size in all directions,[3]; four days after treatment,approximately 1 mm
same,MIC,[4],25 µg/mL
same,MIC,[5],25 µg/mL
same,susceptibility of Gram-negative bacteria to RB,Gram-negative bacteria,not susceptible
same,concentration at which all vancomycin-resistant strains were killed,[6],below 1.0 μg/mL
same,MIC,[7],50 µg/mL
same,MIC,[8],25 µg/mL
same,MIC,"[9]; Staphylococcus epidermidis, Table 1 entry 16, broth dilution, dark, 24 h",25 µg/mL
same,killing by RB,"[9]; aerobic condition, entry 16",effectively killed
same,"Day 3 Growth Inhibition Percentage, RB + 518 nm Irradiation","C. albicans; 518 nm, 5.4 J/cm^2",95.6 ± 3 Percentage
same,"Day 3 Growth Inhibition Percentage, RB Only","C. albicans; dark, no irradiation",42.2 ± 3.7 Percentage
same,MIC,[10],25 µg/mL
same,viable cells in biofilm,[11],significantly reduced
same,viable bacteria in biofilm,[12]; RB 50.0 μg/mL (2×MIC under dark),significantly reduced the number of viable bacteria
same,viable bacteria in biofilm,"[12]; RB 1,000 μg/mL",No viable bacteria
same,"biofilm eradication, log reduction","[12]; under the fluorescent light, RB 30.0 μg/mL (38×MIC)",7 log reduction
same,safety of RB under natural and artificial lights,[13],considered to be safe
same,MIC,"[14]; Streptococcus pneumoniae, Table 1 entry 24, broth dilution, dark, 24 h",> 100 µg/mL
same,susceptibility to RB,[14]; entry 24,showed resistance
same,concentration at which RB kills Mycobacterial spp.,Mycobacterial spp.; dark conditions,25.0 to 50.0 mg/mL
same,concentration at which RB kills Mycobacterial spp.,Mycobacterial spp.; illumination conditions,12.5 to 25.0 mg/mL
same,MIC,[15],50 µg/mL
same,concentration at which all MRSA strains were killed,[16],0.78 to 3.1 µg/mL
same,fungal growth inhibition in vitro,[17],could inhibit the fungal growth
